Measured values: BindingDB's records for doi:10.1021/jm950699x (Rhône-Poulenc Rorer, 1996)

Target: Leukotriene B4 receptor (Cavia porcellus)
Test: Compound was evaluated for Leukotriene B4 receptor binding, obtained from radioligand binding assay using guinea pig spleen cell membrane

`CCOC(=O)/C=C/c1cn(CC(=O)N(C)CCc2ccccc2)c2ccc(OCc3ccccc3)cc12` [(E)-3-{5-Benzyloxy-1-[(methyl-phenethyl-carbamoyl)-methyl]-1H-indol-3-yl}-acrylic acid ethyl ester] gave an IC50 greater than 300 nM.
